According to patent US6706663B2, “Herbicidal 3-heterocyclic substituted benzisothiazole and benzisoxazole compounds” (Wyeth, priority 2000, dated 2004):

What was measured:
[1] = system: AMBEL (Ambrosia artemisifolia); assay: Preemergence herbicidal evaluation; type: in vivo, L.; details: preemergence, rated 4-5 weeks after treatment
Method in brief: (§1)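 Test compound is applied in aqueous acetone to cups just after seeding. Cups are watered and maintained on greenhouse benches. Each cup is scored 0–9 by eye relative to a control after four to five weeks.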

[2] = system: CHEAL (Chenopodium album); assay: Preemergence herbicidal evaluation; type: in vivo, L.; details: preemergence, rated 4-5 weeks after treatment
Method in brief: as §1

[3] = system: CASOB (Cassia obtusifolia); assay: Preemergence herbicidal evaluation; type: in vivo, L.; details: preemergence, rated 4-5 weeks after treatment
Method in brief: as §1

[4] = system: TRZAWR (Wheat, Winter, cv Riband); assay: Preemergence herbicidal evaluation; type: in vivo, Triticum aestivum; details: preemergence, rated 4-5 weeks after treatment
Method in brief: as §1

ORYSAT (Rice, Tebonnet) [5] = assay: Flooded paddy, post-transplant rice tolerance; type: in vivo, Oryza sativa, (L.) Tebonnet; details: flooded paddy, post-transplant rice; rate 0.0320 kg/ha; rated 3-4 weeks after treatment; 0-9 rating scale
Method in brief: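 Visual 0–9 injury rating against a control, covering stand, vigor, malformation, size, chlorosis and overall appearance. Treatment was post-transplant onto flooded containers (water 1.5–3 cm deep, silt loam) holding two ten-day-old cv. Tebonnet seedlings, maintained on greenhouse benches.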

[6] = system: ECHCG (Echinochloa crus-galli); assay: Postemergence herbicidal evaluation; type: in vivo, (L.) Beau
Method in brief: (§2)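 Seedlings grown for about two weeks were sprayed postemergence and then kept under standard greenhouse care. Injury was rated visually 4–5 weeks after treatment on a 0–9 scale against untreated controls, and ratings from repeat tests were averaged.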

[7] = system: IPOHE (Ipomoea hederacea); assay: Postemergence herbicidal evaluation; type: in vivo, (L.) Jacq.
Method in brief: as §2

[8] = system: ABUTH (Abutilon theophrasti); assay: Postemergence herbicidal evaluation; type: in vivo, Medic.
Method in brief: as §2

[9] = system: ECHORC (Echinochloa oryzoides); assay: Flooded paddy, preemergence weed control; type: in vivo, Echinochloa oryzoides (Ard.) Fritsch.; details: rated 3-4 weeks after treatment, 0-9 rating scale
Method in brief: (§3)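 Visual 0-9 rating versus control, scoring stand, vigor, malformation, size, chlorosis and overall appearance. Silt loam soil, propagules in top 0.5 cm; flood depth 1.5–3 cm held for the whole test; greenhouse.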

ORYSAT (Rice, Tebonnet) [10] = assay: Preemergence herbicidal evaluation; type: in vivo, Oryza sativa, (L.) Tebonnet; details: preemergence, rated 4-5 weeks after treatment
[11] = system: AMBEL (Ambrosia artemisifolia); assay: Postemergence herbicidal evaluation; type: in vivo, L.
Method in brief: as §2

[12] = system: CHEAL (Chenopodium album); assay: Postemergence herbicidal evaluation; type: in vivo, L.
Method in brief: as §2

[13] = system: CASOB (Cassia obtusifolia); assay: Postemergence herbicidal evaluation; type: in vivo, L.
Method in brief: as §2

ORYSAT (Rice, Tebonnet) [14] = assay: Postemergence herbicidal evaluation; type: in vivo, Oryza sativa, (L.) Tebonnet
Method in brief: as §2

[15] = system: TRZAWR (Wheat, Winter, cv Riband); assay: Postemergence herbicidal evaluation; type: in vivo, Triticum aestivum
Method in brief: as §2

[16] = system: SAGPY (Sagittaria pygmaea); assay: Flooded paddy, preemergence weed control; type: in vivo, L.; details: rated 3-4 weeks after treatment, 0-9 rating scale
Method in brief: as §3

[17] = system: ABUTH (Abutilon theophrasti); assay: Preemergence herbicidal evaluation; type: in vivo, Medic.; details: preemergence, rated 4-5 weeks after treatment
[18] = system: CYPSE (Cyperus serotinus); assay: Flooded paddy, preemergence weed control; type: in vivo, Rottb.; details: rated 3-4 weeks after treatment, 0-9 rating scale
Method in brief: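 Herbicidal effect was scored visually on a 0–9 scale against an untreated control 3–4 weeks after treatment. Compounds were applied preemergence as 50/50 v/v aqueous/acetone mixtures into flood water (1.5–3 cm deep over silt loam), at roughly 0.0080 to 0.1250 kg/ha active ingredient.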

ZEAMX (Corn, Field) = assay: Postemergence herbicidal evaluation; type: in vivo, Zea mays, L.
Method in brief: as §2

## Cn1c(C(F)(F)F)cc(=O)n(-c2ccc3snc(C4SCCS4)c3c2)c1=O [Compound 24, 3-[3-(1,3-dithiolan-2-yl)-1,2-benzisothiazol-5-yl]-1-methyl-6-(trifluoromethyl)uracil]
[1]; Rate 0.0620 kg/ha
  AMBEL preemergence herbicidal rating: 4.5
[1]; Rate 0.1250 kg/ha
  AMBEL preemergence herbicidal rating: 8.0
[1]; Rate 0.2500 kg/ha
  AMBEL preemergence herbicidal rating: 9.0
[2]; Rate 0.0620 kg/ha
  CHEAL preemergence herbicidal rating: 7.5
[2]; Rate 0.1250 kg/ha
  CHEAL preemergence herbicidal rating: 9.0
[2]; Rate 0.2500 kg/ha
  CHEAL preemergence herbicidal rating: 9.0
[3]; Rate 0.0620 kg/ha
  CASOB preemergence herbicidal rating: 0.0
[3]; Rate 0.1250 kg/ha
  CASOB preemergence herbicidal rating: 0.0
[3]; Rate 0.2500 kg/ha
  CASOB preemergence herbicidal rating: 3.0
[4]; Rate 0.0620 kg/ha
  TRZAWR preemergence herbicidal rating: 0.0
[4]; Rate 0.1250 kg/ha
  TRZAWR preemergence herbicidal rating: 2.0
ORYSAT (Rice, Tebonnet) [5]
  herbicidal rating, ORYSAT (rice tolerance): 0.0
[6]; rate 0.0320 kg/ha
  Postemergence herbicidal rating, ECHCG: 0.0
[6]; rate 0.0620 kg/ha
  Postemergence herbicidal rating, ECHCG: 2.0
[7]; rate 0.0320 kg/ha
  Postemergence herbicidal rating, IPOHE: 9.0
[7]; rate 0.0620 kg/ha
  Postemergence herbicidal rating, IPOHE: 9.0
[8]; rate 0.0320 kg/ha
  Postemergence herbicidal rating, ABUTH: 9.0
[8]; rate 0.0620 kg/ha
  Postemergence herbicidal rating, ABUTH: 9.0
[9]; rate 0.0320 kg/ha
  herbicidal rating, ECHORC: 5.0
[9]; rate 0.1250 kg/ha
  herbicidal rating, ECHORC: 7.0
ORYSAT (Rice, Tebonnet) [10]; Rate 0.0620 kg/ha
  ORYSAT preemergence herbicidal rating: 0.0
ORYSAT (Rice, Tebonnet) [10]; Rate 0.1250 kg/ha
  ORYSAT preemergence herbicidal rating: 3.0
ORYSAT (Rice, Tebonnet) [10]; Rate 0.2500 kg/ha
  ORYSAT preemergence herbicidal rating: 6.0
[11]; rate 0.0320 kg/ha
  Postemergence herbicidal rating, AMBEL: 9.0
[11]; rate 0.0620 kg/ha
  Postemergence herbicidal rating, AMBEL: 9.0
[12]; rate 0.0320 kg/ha
  Postemergence herbicidal rating, CHEAL: 9.0
[12]; rate 0.0620 kg/ha
  Postemergence herbicidal rating, CHEAL: 9.0
[13]; rate 0.0320 kg/ha
  Postemergence herbicidal rating, CASOB: 3.0
[13]; rate 0.0620 kg/ha
  Postemergence herbicidal rating, CASOB: 9.0
ORYSAT (Rice, Tebonnet) [14]; rate 0.0320 kg/ha
  Postemergence herbicidal rating, ORYSAT: 2.0
ORYSAT (Rice, Tebonnet) [14]; rate 0.0620 kg/ha
  Postemergence herbicidal rating, ORYSAT: 2.5
[15]; rate 0.0320 kg/ha
  Postemergence herbicidal rating, TRZAWR: 4.0
[15]; rate 0.0620 kg/ha
  Postemergence herbicidal rating, TRZAWR: 4.0
[16]; rate 0.0320 kg/ha
  herbicidal rating, SAGPY: 0.0
[16]; rate 0.1250 kg/ha
  herbicidal rating, SAGPY: 5.0
[17]; Rate 0.0620 kg/ha
  ABUTH preemergence herbicidal rating: 3.5
[17]; Rate 0.1250 kg/ha
  ABUTH preemergence herbicidal rating: 7.0
[17]; Rate 0.2500 kg/ha
  ABUTH preemergence herbicidal rating: 9.0
[18]; rate 0.0320 kg/ha
  herbicidal rating, CYPSE: 0.0
[18]; rate 0.1250 kg/ha
  herbicidal rating, CYPSE: 2.0
ZEAMX (Corn, Field); rate 0.0320 kg/ha
  Postemergence herbicidal rating, ZEAMX: 5.5
ZEAMX (Corn, Field); rate 0.0620 kg/ha
  Postemergence herbicidal rating, ZEAMX: 6.0
